From US11225459B2, “Substituted bisphenylalkylurea compounds and methods” (TEXAS TECH UNIVERSITY SYSTEM, priority 2017, dated 2022)

How the values were obtained:
[1] = test system: HUVEC cells; experiment: Ca2+ release assay (HUVEC cells); type: cell-based; settings: FIG. 7
Text: FIG. 7 depicts a graph showing Ca2+ release assay (HUVEC cells) of compound of the present disclosure designated as Formula I (AZ2-57).
Unlike many other DAT inhibitors on the market, our compound has very limited interaction with other GPCR receptors, reducing potential CNS-induced toxicity. It is thus an embodiment of the present disclosure to further show effect on microglia-induced immune response (chronic inflammation), dopamine surge in the presence of Formula I (AZ2-57).

[2] = target: H1 receptor (Homo sapiens, UniProt P35367); experiment: H1 R inhibition (Ki); type: binding; settings: FIG. 5
Chain of H1 receptor (P35367 whole entry): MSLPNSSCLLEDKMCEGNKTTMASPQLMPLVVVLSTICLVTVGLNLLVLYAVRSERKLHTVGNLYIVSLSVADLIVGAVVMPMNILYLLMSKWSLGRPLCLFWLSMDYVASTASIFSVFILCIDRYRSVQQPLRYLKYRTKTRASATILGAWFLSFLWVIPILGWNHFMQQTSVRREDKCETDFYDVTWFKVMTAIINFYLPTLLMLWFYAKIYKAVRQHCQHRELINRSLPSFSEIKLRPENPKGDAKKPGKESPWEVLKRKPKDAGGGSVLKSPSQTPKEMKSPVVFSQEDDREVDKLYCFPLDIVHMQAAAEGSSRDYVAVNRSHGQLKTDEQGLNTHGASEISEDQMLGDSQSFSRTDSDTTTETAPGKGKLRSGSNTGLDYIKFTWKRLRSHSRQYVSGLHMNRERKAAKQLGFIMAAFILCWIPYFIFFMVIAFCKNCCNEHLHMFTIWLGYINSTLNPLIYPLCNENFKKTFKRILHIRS
Text: FIG. 5 depicts a graph showing H1 R inhibition (Ki) of compound of the present disclosure designated as Formula I (AZ2-57).

[3] = target: Dopamine Transporter (DAT) (Homo sapiens, UniProt Q01959); experiment: DAT inhibition (Ki), in vitro; type: binding; settings: FIG. 4
Chain of Dopamine Transporter (DAT) (Q01959 whole entry, species assumed): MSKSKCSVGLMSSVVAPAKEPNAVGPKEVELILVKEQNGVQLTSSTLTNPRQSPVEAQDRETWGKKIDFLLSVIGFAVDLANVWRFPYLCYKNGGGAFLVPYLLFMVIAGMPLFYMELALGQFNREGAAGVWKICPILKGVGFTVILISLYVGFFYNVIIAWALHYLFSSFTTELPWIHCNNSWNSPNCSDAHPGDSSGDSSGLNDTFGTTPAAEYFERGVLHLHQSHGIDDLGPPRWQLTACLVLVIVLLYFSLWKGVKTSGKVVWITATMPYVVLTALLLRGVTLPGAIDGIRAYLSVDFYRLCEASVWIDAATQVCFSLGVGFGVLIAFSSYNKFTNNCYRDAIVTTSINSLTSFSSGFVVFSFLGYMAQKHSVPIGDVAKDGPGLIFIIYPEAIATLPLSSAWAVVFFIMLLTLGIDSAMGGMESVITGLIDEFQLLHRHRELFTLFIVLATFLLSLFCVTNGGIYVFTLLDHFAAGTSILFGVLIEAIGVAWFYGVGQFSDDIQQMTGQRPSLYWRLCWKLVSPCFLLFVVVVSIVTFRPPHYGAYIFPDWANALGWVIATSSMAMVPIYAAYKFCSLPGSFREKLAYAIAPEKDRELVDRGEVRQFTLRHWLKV
Text: FIG. 4 depicts a graph showing DAT inhibition (Ki) of compound of the present disclosure designated Formula I (AZ2-57).
In one embodiment, compound of the present disclosure Formula I (AZ2-57) is shown in in vitro studies to show DAT inhibition (see FIG. 4).

[4] = target: H2 receptor (Homo sapiens, UniProt P25021); experiment: H2 R inhibition (Ki); type: binding; settings: FIG. 6
Chain of H2 receptor (P25021 whole entry): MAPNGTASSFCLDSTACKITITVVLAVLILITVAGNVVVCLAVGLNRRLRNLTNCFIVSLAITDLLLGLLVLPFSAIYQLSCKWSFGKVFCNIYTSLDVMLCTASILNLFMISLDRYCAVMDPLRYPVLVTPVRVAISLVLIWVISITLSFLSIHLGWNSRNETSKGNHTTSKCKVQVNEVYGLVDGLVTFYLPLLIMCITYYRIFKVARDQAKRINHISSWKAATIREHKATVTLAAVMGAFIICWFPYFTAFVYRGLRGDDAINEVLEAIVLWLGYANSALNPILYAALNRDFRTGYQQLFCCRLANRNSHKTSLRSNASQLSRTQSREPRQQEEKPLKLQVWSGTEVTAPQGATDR
Text: FIG. 6 depicts a graph showing H2 R inhibition (Ki) of compound of the present disclosure designated as Formula I (AZ2-57).

- Ki [2]: 0.032 µM
- inhibition of H1 receptor [2]: 65.4%
- Ki [3]: 0.0052 µM
- Ki [4]: 1.75 µM
- inhibition of H2 receptor [4]: 54%
SMILES: O=C(NCCCCC(c1ccc(F)cc1)c1ccc(F)cc1)Nc1ccc(Cl)cc1 [AZ2-57, 1-(5,5-bis(4-fluorophenyl)pentyl)-3-(4-chlorophenyl)urea]
- Ca2+ release [1]: effectively manipulated
